A word on the IC50: it is the concentration at which inhibition is half-maximal. As a reminder, the EC50 is the concentration that produces a half-maximal response.

Data on 13 compounds can be found in patent US20240239772A1, “PROTEASE INHIBITORS AND METHODS OF USE” (The Cleveland Clinic Foundation, priority 2021, published 2024).

Structures are written as SMILES. Where two headings read alike, the source gives them in different places. A value given as a limit tells only on which side of the number the result lay.

The target in one assay is SARS-CoV-2 3CLpro (Severe acute respiratory syndrome coronavirus 2 (2019-nCoV) (SARS-CoV-2), UniProt P0DTD1). Put plainly: biochemical. The settings on record: read-out: SARS-CoV-2 IC50. Type of assay: biochemical.
For assay [1], the system named is SARS-CoV-2. Put plainly: microbe, parasite or virus in culture. Type of assay: cell-based. The conditions noted are these: read-out: CPE Inhibition Assay EC50.
Assay [2] deals with SARS-CoV-2. Kind of assay: microbe, parasite or virus in culture. Type of assay: cell-based.
In another assay the target is SARS-CoV-1 3CLpro (Severe acute respiratory syndrome coronavirus (SARS-CoV), UniProt P0C6X7). Type of assay: biochemical.
[3] abbreviates: Severe acute respiratory syndrome coronavirus 2, Vero C1008, read-out: Plaque Reduction Assay EC50.
The mark [4] stands for this setting: Severe acute respiratory syndrome coronavirus 2, Vero C1008, 68 h.

Consider `COc1cc(-c2cn[nH]c2)ccc1N(Cc1cccc(Cl)c1)C(=O)Cn1nnc2ccccc21` [Compound 38, 2-(Benzotriazol-1-yl)-N-[(3-chlorophenyl)methyl]-N-[2-methoxy-4-(1H-pyrazol-4-yl)phenyl]acetamide], for which the IC50 at SARS-CoV-2 3CLpro stood at 197 ± 50 nM. Further, the EC50 is 2300 ± 330 nM in the assay on SARS-CoV-2 [1] (Severe acute respiratory syndrome coronavirus 2, Vero C1008, Vero E6 ACE2 cells, 100 TCID50 SARS-CoV-2, 68 h after infection) and 2010 ± 490 nM in the assay with SARS-CoV-2 [2] (setting [3]).

As to `O=C(Cn1nnc2ccccc21)N(Cc1cccc(Cl)c1)c1ccc(-c2ccc[nH]c2=O)cc1` [Compound 35, 2-(1H-Benzo[d][1,2,3]triazol-1-yl)-N-(3-chlorobenzyl)-N-(4-(2-oxo-1,2-dihydropyridin-3-yl)phenyl)acetamide], the IC50 at SARS-CoV-2 3CLpro was determined as 746 ± 98 nM. For the same compound, the EC50 in the assay on SARS-CoV-2 [1] (setting [4]) was determined as 8770 ± 1140 nM; with SARS-CoV-2 [2] (Severe acute respiratory syndrome coronavirus 2, Vero C1008, Vero E6 ACE2 cells, approximately 50 PFUs SARS-CoV-2, read-out: Plaque Reduction Assay EC50), 16700 ± 2440 nM.

For `O=C(Nc1ccc(N(Cc2ccsc2)C(=O)Cn2nnc3ccccc32)cc1)C1CC1` [ML300, N-(4-(2-(1H-benzo[d][1,2,3]triazol-1-yl)-N-(thiophen-3-ylmethyl)acetamido)phenyl)cyclopropanecarboxamide, reference compound], the IC50 on SARS-CoV-2 3CLpro was 4990 ± 620 nM. Further, the EC50 in the assay with SARS-CoV-2 [1] (setting [4]) turned out to be 19900 ± 6320 nM; in the assay on SARS-CoV-2 [2] (setting [3]) it was 28200 ± 1300 nM.

In the case of `O=C(Cn1nnc2ccccc21)N(Cc1cccc(Cl)c1)c1ccc(-c2cccnc2)cc1` [Compound 28, 2-(Benzotriazol-1-yl)-N-[(3-chlorophenyl)methyl]-N-[4-(3-pyridyl)phenyl]acetamide], the IC50 at SARS-CoV-2 3CLpro came to 390 ± 110 nM. In addition, the EC50 stood at 7610 ± 1430 nM in the assay on SARS-CoV-2 [1] (setting [4]) and 11100 ± 370 nM with SARS-CoV-2 [2] (setting [3]).

For the compound `COc1cc(N(Cc2cccc(Cl)c2)C(=O)Cn2nnc3ccccc32)ccc1-c1cn[nH]c1` [Compound 37, 2-(Benzotriazol-1-yl)-N-[(3-chlorophenyl)methyl]-N-[3-methoxy-4-(1H-pyrazol-4-yl)phenyl]acetamide], at SARS-CoV-2 3CLpro, the IC50 came to 328 ± 27 nM. Besides, the figures for the EC50 with SARS-CoV-2 [1] (setting [4]) and in the assay with SARS-CoV-2 [2] (setting [3]) were 2930 ± 280 nM and 3240 ± 270 nM, respectively.

Turning to `O=C(Cn1nnc2ccccc21)N(Cc1cc(F)cc(Cl)c1)c1ccc(-c2cccnc2)cc1` [Compound 31, 2-(Benzotriazol-1-yl)-N-[(3-chloro-5-fluoro-phenyl)methyl]-N-[4-(3-pyridyl)phenyl]acetamide], the IC50 on SARS-CoV-1 3CLpro was 74 ± 10 nM; on SARS-CoV-2 3CLpro, 119 ± 5 nM.

On to `O=C(Cn1nnc2ccccc21)N(Cc1ccc(Cl)c(Cl)c1)c1ccc(-c2cccnc2)cc1` [Compound 30, 2-(Benzotriazol-1-yl)-N-[(3,4-dichlorophenyl)methyl]-N-[4-(3-pyridyl)phenyl]acetamide], for which the IC50 against SARS-CoV-1 3CLpro and on SARS-CoV-2 3CLpro was above 200000 nM each time.

For `O=C(Cn1nnc2ccccc21)N(Cc1cccc(Cl)c1)c1ccc(-c2cn[nH]c2)cn1` [Compound 40, 2-(Benzotriazol-1-yl)-N-[(3-chlorophenyl)methyl]-N-[5-(1H-pyrazol-4-yl)-2-pyridyl]acetamide], the IC50 was found to be 214 ± 63 nM against SARS-CoV-1 3CLpro and 171 ± 29 nM at SARS-CoV-2 3CLpro. Moreover, the EC50 with SARS-CoV-2 [1] (setting [4]) was 1910 ± 300 nM; in the assay with SARS-CoV-2 [2] (setting [3]) it was 3390 ± 210 nM.

On to `O=C(Cn1nnc2ccccc21)N(Cc1cccc(Cl)c1)c1ccc(-c2cn[nH]c2)cc1` [Compound 36, N-(4-(1H-Pyrazol-4-yl)phenyl)-2-(1H-benzo[d][1,2,3]triazol-1-yl)-N-(3-chlorobenzyl)acetamide], for which, on SARS-CoV-2 3CLpro, the IC50 stood at 270 ± 67 nM. The EC50 in the assay with SARS-CoV-2 [1] (setting [4]) was found to be 1980 ± 240 nM; in the assay with SARS-CoV-2 [2] (setting [3]), 3310 ± 100 nM.

On to `O=C(Cn1nnc2ccccc21)N(Cc1cccc(Cl)c1)c1ccc(-c2cn[nH]c2)nc1` [Compound 39, 2-(Benzotriazol-1-yl)-N-[(3-chlorophenyl)methyl]-N-[6-(1H-pyrazol-4-yl)-3-pyridyl]acetamide], for which the IC50 against SARS-CoV-1 3CLpro was 336 ± 65 nM; on SARS-CoV-2 3CLpro it was 333 ± 93 nM. Moreover, the values for the concentration giving a half-maximal response (EC50) in the assay with SARS-CoV-2 [1] (setting [4]) and with SARS-CoV-2 [2] (setting [3]) were 3810 ± 180 nM and 4650 ± 110 nM, respectively.

For the compound `O=C(Cn1nnc2ccccc21)N(CC1CCOC1)c1ccc(-c2cccnc2)cc1` (stereo not shown) [Compound 26, 2-(1H-Benzo[d][1,2,3]triazol-1-yl)-N-(4-(pyridin-3-yl)phenyl)-N-((tetrahydrofuran-3-yl)methyl)acetamide], the IC50 was 20500 ± 1590 nM on SARS-CoV-1 3CLpro and 23000 ± 1380 nM on SARS-CoV-2 3CLpro.

For `CCC(CC)COC(=O)[C@H](C)N[P@](=O)(OC[C@H]1O[C@@](C#N)(c2ccc3c(N)ncnn23)[C@H](O)[C@@H]1O)Oc1ccccc1` [Remdesivir, reference compound], the EC50 in the assay with SARS-CoV-2 [1] (setting [4]) was 340 ± 10 nM; in the assay with SARS-CoV-2 [2] (setting [3]) it was 430 ± 60 nM.

As to `O=C(Cn1nnc2ccccc21)N(Cc1ccsc1)c1ccc(-c2c[nH]cn2)cc1` [Compound 21, 2-(Benzotriazol-1-yl)-N-[4-(1H-imidazol-4-yl)phenyl]-N-(3-thienylmethyl)acetamide], the IC50 at SARS-CoV-2 3CLpro came to 60 ± 10 nM. Further, the EC50 in the assay on SARS-CoV-2 [1] (setting [4]) came out at 1740 ± 190 nM; in the assay with SARS-CoV-2 [2] (setting [3]), 1750 ± 250 nM.
